Source: patent EP0417637A2, “Use of dopamine autoreceptor agonists in the treatment of drug dependency” (BOEHRINGER INGELHEIM KG, priority 1989, dated 1991)
Where two headings read alike, the source gives them in different places.

Assays:
Affen [1] = assay: Test 2: intravenous self-administration in monkeys receiving cocaine infusions (analogous to Test 1); conditions: BHT 920 0,001, 0,003 and 0,01 mg/kg/Injektion or cocaine; 3 monkeys, each dose available for 25 min or 20 infusions
[2] = Extensive animal tests on abuse potential (no method given); format: in vivo
Excerpt: Das ist für die Therapie von großer Bedeutung.

Affen [3] = assay: Test 1: intravenous self-administration in monkeys experienced with sodium methohexital and saline; conditions: for Anzahl der Selbstinjektionen: average values, 3 monkeys, sessions of 130 min
drogenabhängigen Affen = assay: Test 3: effect of BHT 920 on cocaine or alfentanil self-administration in drug-dependent monkeys; format: in vivo
Description: Nach Durchführung des Tests Nr. […] In weiteren analogen Versuchen (siehe beiliegende graphische Darstellungen für Affe 1, Affe 2 und Affe 3) wurde den drogenabhängigen Affen BHT 920 in 2 Dosen (0,01 und 0,1 mg/kg/Injektion) gleichzeitig zu steigenden Dosen von Kokain (2 Tiere) beziehungsweise Alfentanil (1 Tier) angeboten. […] Auch sehr hohe Dosen der suchterzeugenden Droge konnten diese Wirkung von BHT 920 nicht aufheben. Aufgrund von Verhaltensbeobachtungen während der oben beschriebenen Tests kann gesagt werden, daß die hemmende Wirkung von BHT 920 nicht durch eine allgemeine Sedation erklärt werden kann. Daraus kann geschlossen werden, daß die Verabreichung von BHT 920 das Bedürfnis nach Kokain mindert und die psychische Abhängigkeit von der Droge durchbricht.

Affen [4] = conditions: in vivo

Structure (SMILES) | Reaktionshäufigkeit (Affen [1]) | Mißbrauchspotential [2] | Anzahl der Selbstinjektionen (Affen [3]; 0,01 mg BHT 920/kg/Injektion i.v.) | Anzahl der Selbstinjektionen (Affen [3]; 0,05 mg BHT 920/kg/Injektion i.v.) | Anzahl der Selbstinjektionen (Affen [3]; 0,0001 mg BHT 920/kg/Injektion i.v.) | Anzahl der Selbstinjektionen (Affen [3]; 0,001 mg BHT 920/kg/Injektion i.v.) | Reinforcement (Affen [3]; at the doses used) | Anzahl der genommenen Injektionen der Testsubstanz (Affen [3]; four doses, each tested twice in each monkey, compared with saline and methohexital) | Kokain - beziehungsweise Alfentanil - Selbstadministrationsrate (drogenabhängigen Affen; BHT 920 high dose 0,1 mg/kg/Injektion given together with rising doses of cocaine (2 animals) or alfentanil (1 animal)) | Kokain - beziehungsweise Alfentanil - Selbstadministrationsrate (drogenabhängigen Affen; BHT 920 lower dose 0,01 mg/kg/Injektion given together with rising doses of cocaine (2 animals) or alfentanil (1 animal)) | durch Kokain verursachte Reaktionshäufigkeit (drogenabhängigen Affen; session following administration of BHT 920, in 2 of 3 animals, compared with cocaine in Test 2) | Reaktionshäufigkeit (Affen [4])
C=CCN1CCc2nc(N)sc2CC1 [BHT 920, 6-Allyl-2-amino-5,6,7,8-tetrahydro-4H-thiazolo[4,5-d]azepin] | in dem Bereich lag, der auch bei Kochsalzlösung beobachtet wurde | kein Mißbrauchspotential | 10 | 18 | 21 | 19 | kein Reinforcement | nicht höher als die Anzahl der genommenen Injektionen von Kochsalzlösung | auf Null sinken | deutlichen Abnahme | wesentlich unter der in Test 2 für Kokain beobachtete Reaktionshäufigkeit | –
COC(=O)[C@H]1[C@@H](OC(=O)c2ccccc2)C[C@@H]2CC[C@H]1N2C [Kokain] | – | – | – | – | – | – | – | – | – | – | – | dosenabhängige Erhöhung der Reaktionshäufigkeit
CCCN[C@H]1CCc2nc(N)sc2C1 [SND 919, (S)-2-Amino-4,5,6,7-tetrahydro-6-n-propylamino-benzothiazol] | – | kein Mißbrauchspotential | – | – | – | – | – | – | – | – | – | –
